Where two headings read alike, the source gives them in different places.

The test system of test [1] is HIV-1GRL98065r-40P. Kind of test: microbe, parasite or virus in culture. It counts as cell-based. Conditions: for IC50: Human immunodeficiency virus 1, MT4, read-out: IC50 against HIV-1GRL98065r-40P; for fold change of IC50, HIV-1GRL98065r-40P: compared to HIV-1NL4-3. The method, then:
Drug susceptibility assay. The susceptibility of HIV-1LAI, HIV-2EHO, HIV-2ROD, to various drugs and the cytotoxicity of those drugs was determined by using the MTT assay. Briefly, MT-2 cells (2×10^4/mL) were exposed to 100 TCID50s (50% tissue culture infectious doses) of HIV-1LAI, HIV-2EHO, or HIV-2ROD in the presence or absence of various concentrations of drugs in 96-well microculture plates and were incubated at 37° C. for 7 days. After 100 μL of the medium was removed from each well, 3-(4,5-dimethylthiazol-2-yl)-2,5-diphenyltetrazolium bromide (MTT) solution (10 μL, 7.5 mg/mL in phosphate-buffered saline) was added to each well in the plate, followed by incubation at 37° C. for 4 hours. […] All assays were performed in duplicate or triplicate. To determine the sensitivity of HIV-1Ba-L, HIV-1ERS104 pre, and clinical multi-drug-resistant HIV-1 isolates and different subtypes of HIV-1 isolates to drugs, phytohemagglutinin-activated peripheral blood mononuclear cells (PHA-PBMs; 10^6/mL) were exposed to 50 TCID50 (50% tissue infectious dose) of each HIV-1 isolate and cultured in the presence or absence of various concentrations of drugs in 10-fold serial dilutions in 96-well microtiter culture plates. To determine the drug susceptibility of certain laboratory HIV-1 strains (HIV-1NL4-3), MT-4 cells were used as target cells. MT-4 cells (10^5/mL) were exposed to 100 TCID50 of wild type HIV-1NL4-3 and PI-resistant HIV-1NL4-3 in the presence or absence of various concentrations of drugs and were incubated at 37° C. On day 7 of culture, the supernatant was harvested and the amount of p24 Gag protein was determined by using a fully automated chemiluminescent enzyme immunoassay system (Lumipulse F; Fujirebio Inc., Tokyo, Japan) (22). […] All assays were performed in duplicate or triplicate. […]

Test [2] deals with HIV-2EHO. Kind of test: MTT assay, MT-2 cells exposed to HIV-2EHO. It counts as cell-based. How it is done: (§1) Drug susceptibility assay. The susceptibility of HIV-1LAI, HIV-2EHO, HIV-2ROD, to various drugs and the cytotoxicity of those drugs was determined by using the MTT assay. Briefly, MT-2 cells (2×10^4/mL) were exposed to 100 TCID50s (50% tissue culture infectious doses) of HIV-1LAI, HIV-2EHO, or HIV-2ROD in the presence or absence of various concentrations of drugs in 96-well microculture plates and were incubated at 37° C. for 7 days. After 100 μL of the medium was removed from each well, 3-(4,5-dimethylthiazol-2-yl)-2,5-diphenyltetrazolium bromide (MTT) solution (10 μL, 7.5 mg/mL in phosphate-buffered saline) was added to each well in the plate, followed by incubation at 37° C. for 4 hours. […] All assays were performed in duplicate or triplicate. To determine the sensitivity of HIV-1Ba-L, HIV-1ERS104 pre, and clinical multi-drug-resistant HIV-1 isolates and different subtypes of HIV-1 isolates to drugs, phytohemagglutinin-activated peripheral blood mononuclear cells (PHA-PBMs; 10^6/mL) were exposed to 50 TCID50 (50% tissue infectious dose) of each HIV-1 isolate and cultured in the presence or absence of various concentrations of drugs in 10-fold serial dilutions in 96-well microtiter culture plates. To determine the drug susceptibility of certain laboratory HIV-1 strains (HIV-1NL4-3), MT-4 cells were used as target cells. MT-4 cells (10^5/mL) were exposed to 100 TCID50 of wild type HIV-1NL4-3 and PI-resistant HIV-1NL4-3 in the presence or absence of various concentrations of drugs and were incubated at 37° C. On day 7 of culture, the supernatant was harvested and the amount of p24 Gag protein was determined by using a fully automated chemiluminescent enzyme immunoassay system (Lumipulse F; Fujirebio Inc., Tokyo, Japan) (22). […] All assays were performed in duplicate or triplicate.
All assays were conducted in duplicate, and the data shown represent mean values (±1 standard deviations) derived from the results of three independent experiments.
A general note: Formazan colour is commonly taken as a measure of viable cells.

The subject of test [3] is HIV-1ERS104pre (wild-type: X4). Description: p24 Gag production inhibition, PHA-PBMs, wild-type clinical isolate. It counts as cell-based. The method, then: as §1
(§2) The amino acid substitutions identified in the protease-encoding region of HIV-1ERS104pre, HIV-1TM, HIV-1MM, HIV-1JSL, HIV-1B, HIV-1C, HIV-1G compared to the consensus type B sequence cited from the Los Alamos database include L63P; L10I, K14R, R41K, M46L, I54V, L63P, A71V, V82A, L90M; I93L; L10I, K43T, M46L, I54V, L63P, A71V, V82A, L90M, Q92K; L10I, L24I, I33F, E35D, M36I, N37S, M46L, I54V, R57K, I62V, L63P, A71V, G73S, V82A; L10I, K14R, L33I, M36I, M46I, F53I, K55R, I62V, L63P, A71V, G73S, V82A, L90M, I93L; L10I, I15V, K20R, L24I, M36I, M46L, I54V, I62V, L63P, K70Q, V82A, L89M; and L10I, V11I, T12E, I15V, L19I, R41K, M46L, L63P, A71T, V82A, L90M, respectively. HIV-1ERS104pre served as a source of wild-type HIV-1. The IC50 values were determined by using PHA-PBMs as target cells and the inhibition of p24 Gag protein production by each drug was used as an endpoint. The numbers in parentheses represent the fold changes of IC50 values for each isolate compared to the IC50 values for wild-type HIV-1ERS104pre. All assays were conducted in duplicate or triplicate, and the data shown represent mean values (±1 standard deviations) derived from the results of three independent experiments.

Test [4] concerns 92UG037 (A-R5). Description: p24 Gag production inhibition, PHA-PBMs, subtype A isolate 92UG037. Conditions: Human immunodeficiency virus 1, read-out: IC50 against 92UG037 (A-R5). It counts as cell-based, HIV-1. The method, then:
as §1
The IC50 values were determined by using PHA-PBMs as target cells and the inhibition of p24 Gag protein production by each drug was used as an endpoint.

Test [5] relates to HIV-1NL4-3. Description: p24 Gag production inhibition, MT-4 cells, wild-type HIV-1NL4-3. It counts as cell-based. How it is done:
as §1

The subject of test [6] is multi-drug-resistant clinical HIV-1 variants. Kind of test: p24 assay, PHA-PBMs, panel of multi-drug-resistant clinical HIV-1 isolates. Conditions: Human immunodeficiency virus 1, read-out: IC50 against multi-drug-resistant clinical HIV-1 strains, PHA-PBMs, p24 production. It counts as cell-based. How it is done:
as §1, §2

Setting [7] is: Human immunodeficiency virus 2, MT2, MT-2 cells, 100 TCID50, MTT assay, read-out: IC50 against HIV-2EHO.
Setting [8] is: Human immunodeficiency virus 1, PHA-PBMs, p24 Gag production, read-out: IC50 against HIV-1ERS104pre (wild-type: X4).
Where [9] appears, read: Human immunodeficiency virus 2, MT2, read-out: IC50 against HIV-2EHO.
Setting [10] is: Human immunodeficiency virus 1, MT4, read-out: IC50 against HIV-1NL4-3 (wild type).
Where [11] appears, read: Human immunodeficiency virus 1, read-out: IC50 against HIV-1ERS104pre (wild-type: X4).
Setting [12] is: Human immunodeficiency virus 1, MT4, MT-4 cells, 100 TCID50, p24 Gag production, read-out: IC50 against HIV-1NL4-3 (wild type).

For orientation: IC50 means the midpoint of a concentration-inhibition curve. Regarding `CC(C)CN(C[C@@H](O)[C@H](Cc1ccccc1)NC(=O)O[C@H]1CCOC1)S(=O)(=O)c1ccc(N)cc1` [APV, Amprenavir], the IC50 was greater than 1000 nM in test [1], 250 ± 80 nM in test [2] (setting [7]) and 29 ± 5 nM in test [3] (setting [8]).

As for `COC(=O)N[C@H](C(=O)N[C@@H](Cc1ccccc1)[C@@H](O)CN(Cc1ccc(-c2ccccn2)cc1)NC(=O)[C@@H](NC(=O)OC)C(C)(C)C)C(C)(C)C` [ATV, Atazanavir], the IC50 came to 2.5 ± 0.2 nM in test [4]; 11 nM in test [1]; 5 ± 2 nM in test [2] (setting [9]); 4.2 ± 0.4 nM in test [5] (setting [10]); 3.8 ± 0.4 nM in test [3] (setting [11]). Further, in test [1], the “fold change of IC50, HIV-1GRL98065r-40P” value was 3.

With `CC(C)CN(CC(O)C(Cc1ccccc1)NC(=O)OC1COC2OCCC12)S(=O)(=O)c1ccc2c(c1)OCO2` (stereo not shown) [GRL-98065], the IC50 is 0.4 ± 0.1 nM in test [4]; 180 nM in test [1]; no more than 6 nM in test [6]; 3.2 ± 0.7 nM in test [2] (setting [9]); 0.3 ± 0.2 nM in test [5] (setting [10]). The “fold change of IC50, HIV-1GRL98065r-40P” value in test [1] is 600.

For the compound `CC(C)(C)NC(=O)[C@@H]1CN(Cc2cccnc2)CCN1C[C@@H](O)C[C@@H](Cc1ccccc1)C(=O)N[C@H]1c2ccccc2C[C@H]1O` [IDV, indinavir], the IC50 is 280 nM in test [1], greater than 1000 nM in test [6], 24 ± 5 nM in test [2] (setting [7]) and 24 ± 8 nM in test [3] (setting [8]).

Regarding `Cc1cccc(C)c1OCC(=O)N[C@@H](Cc1ccccc1)[C@@H](O)C[C@H](Cc1ccccc1)NC(=O)[C@H](C(C)C)N1CCCNC1=O` [LPV, lopinavir], the IC50 in test [2] (setting [7]) was 2.6 ± 0.8 nM; in test [5] (setting [12]), 31 ± 9 nM; in test [3] (setting [8]), 7 ± 1 nM.

For `Cc1c(O)cccc1C(=O)N[C@@H](CSc1ccccc1)[C@H](O)CN1C[C@H]2CCCC[C@H]2C[C@H]1C(=O)NC(C)(C)C` [NFV, Nelfinavir], the IC50 in test [4] is 56 ± 14 nM; in test [6], greater than 1000 nM; in test [2] (setting [7]) it was 30 ± 6 nM; in test [5] (setting [12]), 33 ± 7 nM.

As for `CC(C)c1nc(CN(C)C(=O)N[C@H](C(=O)N[C@@H](Cc2ccccc2)C[C@H](O)[C@H](Cc2ccccc2)NC(=O)OCc2cncs2)C(C)C)cs1` [RTV, ritonavir], the IC50 in test [4] was 41 ± 8 nM; in test [6], greater than 1000 nM; in test [2] (setting [7]), 210 ± 50 nM; in test [5] (setting [12]), 33 ± 2 nM.

On to `CC(C)(C)NC(=O)[C@@H]1C[C@@H]2CCCC[C@@H]2CN1C[C@@H](O)[C@H](Cc1ccccc1)NC(=O)[C@H](CC(N)=O)NC(=O)c1ccc2ccccc2n1` [SQV, Saquinavir], for which the IC50 was 3.2 ± 0.3 nM in test [4]; 32 nM in test [1]; 140 to 290 nM in test [6]; 3 ± 0.4 nM in test [2] (setting [9]); 7 ± 2 nM in test [5] (setting [10]); 8 ± 3 nM in test [3] (setting [11]). For the same compound, the “fold change of IC50, HIV-1GRL98065r-40P” value in test [1] worked out at 5.

These data come from patent US9808527B2, “Methods and compositions for treating HIV infections” (priority 2006, dated 2017).
